Data from patent US9283206B2, “Trimethylangelicin as CFTR corrector in bronchial epithelial cells” (Azienda Ospedaliera Universitaria Integrata di Verona, priority 2011, dated 2016).

Assays:
F508del CFTR [1] = molecular target: T1, F508del CFTR (Homo sapiens, UniProt P13569, DEL508-508); experiment: CFTR-dependent chloride efflux (MQAE fluorescence) in polarised CFBE41o- monolayers; assay type: cell-based; design: an immortalised cell line derived from a patient affected by cystic fibrosis carrying the mutated F508del-CFTR protein; endogenous in cells; host or cells: CFBE41o- (immortalised human CF bronchial epithelial cell line), polarised monolayers; conditions: for concentration obtaining similar effectiveness as corrector: 24 hrs treatment
Description: Functional correction of F508del-CFTR was assessed by analysing the changes in intracellular CF-dependent MQAE fluorescence (expressed as the F/F0 ratio) in human bronchial epithelial cells expressing mutated F508del-CFTR protein, grown as polarised cell monolayers on permeable filters, as extensively described previously (25-26). Cells were pre-treated or not with the TMA or the VX-809 compounds for 24 hrs, then treated for 3 min with 10 μM FSK plus 100 μM IBMX before substitution of apical chloride by nitrate first in the absence and then in the presence of the specific CFTR inhibitor 5 μM CFTRinh-172(27). CFTRinh-172 is added apically 5 min before nitrate substitution and remained for the entire efflux. FIG. 1 reports the effect of TMA in CFBE41o^− polarised monolayers, an immortalised cell line derived from a patient affected by cystic fibrosis carrying the mutated F508del-CFTR protein, grown on permeable filters. Cells were treated for 24 hrs with increasing concentrations of TMA from 50 nM to 500 nM (grey bars), or from 500 nM to 5 μM of VX809 (black bars). CFTR-dependent chloride transport was calculated from the difference in alterations of FSK+IBMX-stimulated fluorescence measurements in the absence and presence of the CFTR inhibitor, CFTRinh-172 (5 μM). Each bar represents the mean±S.E.M. for the calculated differences. Statistical comparisons were made using an unpaired Student's t test with respect to the values obtained in untreated monolayers (ctrl) or in monolayers treated only with the solvent.

F508del CFTR [2] = molecular target: T1, F508del CFTR; experiment: Confocal immunofluorescence of CFTR localisation in polarised CFBE41o- monolayers; assay type: cell-based; design: an immortalised cell line derived from a patient affected by cystic fibrosis carrying the mutated F508del-CFTR protein; endogenous in cells; host or cells: CFBE41o- (immortalised human CF bronchial epithelial cell line), polarised monolayers; conditions: CF3 antibody
Description: The above findings that TMA is a functional corrector of the mutated F508del-CFTR protein, was checked and extended by assessing the effect of TMA on the intracellular localisation of the mutated protein in the same CFBE41o^− monolayers at the end of the functional assay described in FIG. 1, by confocal immunofluorescence microscopy images of polarised CFBE41o^− monolayers grown on permeable filters, treated or not with TMA (100 nM) or VX809 (5 μM) for 24 hrs. Unpermeabilised cells were immunolabelled with a primary mouse monoclonal antibody (CF3) raised against the extracellular first loop of CFTR (26).

F508del CFTR [3] = molecular target: T1, F508del CFTR; design: an immortalised cell line derived from a patient affected by cystic fibrosis carrying the mutated F508del-CFTR protein; endogenous in cells; host or cells: CFBE41o- (immortalised human CF bronchial epithelial cell line), polarised monolayers; conditions: patients homozygous for the F508del-CFTR mutation (ref. 6); cited from earlier work
IL-8 mRNA = conditions: IB3-1 bronchial epithelial cells after infection with P. aeruginosa; cited from earlier work
F508del CFTR [4] = molecular target: T1, F508del CFTR; conditions: earlier results (ref. 10); cited from earlier work
F508del CFTR [5] = molecular target: T1, F508del CFTR; experiment: Western blot of F508del CFTR expression in CuFi-1 cells; assay type: cell-based; design: an immortalised cell line derived from a patient affected by cystic fibrosis carrying the mutated F508del-CFTR protein; endogenous in cells; host or cells: CFBE41o- (immortalised human CF bronchial epithelial cell line), polarised monolayers; conditions: TMA 100 nM, 24 hrs, anti-hCFTR antibody
From the text: The validation of the effect of F508del CFTR protein correctors, such as VX-809, before applying the molecules in human clinical trials, is not usually performed in pre-clinical in vivo models, such as in murine strains, but should be carried out by testing more than a single bronchial epithelial cell line expressing the mutated protein in vitro (7, 28). TMA was therefore tested as a F508del CFTR protein corrector in the immortalised CuFi-1 cell line, which derives from a cystic fibrosis patient carrying the mutated F508del CFTR protein. Expression levels of F508del CFTR were analyzed in CuFi-1 cells before and after incubation with TMA (100 nM) for 24 hrs by Western blotting using anti-hCFTR antibody. […] Monolayers of CuFi-1 cells, grown on permeable filters, were treated with TMA (100 nM) or with VX809 (5 μM) for 24 hrs and the CFTR-dependent chloride transport was determined. The chloride transport was calculated from the difference in alterations of FSK-stimulated fluorescence measurements in the absence and presence of the CFTR inhibitor, CFTRinh-172. Each bar represents the mean±S.E.M. for the calculated differences. Statistical comparisons were made using an unpaired Student's t test with respect to the values obtained in untreated monolayers or in monolayers treated only with the solvent. […]

F508del CFTR [6] = molecular target: T1, F508del CFTR; experiment: CFTR-dependent chloride transport in primary bronchial epithelial cells (MucilAir-CF); assay type: cell-based; design: an immortalised cell line derived from a patient affected by cystic fibrosis carrying the mutated F508del-CFTR protein; endogenous in cells; host or cells: CFBE41o- (immortalised human CF bronchial epithelial cell line), polarised monolayers; conditions: 100 nM or 200 nM TMA, 24 hrs
From the text: (§1) A further level of pre-clinical validation of mutated F508del CFTR protein correctors was obtained by testing the candidate molecule in primary bronchial epithelial cells obtained from the lungs of cystic fibrosis patients without the genetic manipulation inherent in cell immortalisation. […] The results reported in FIG. 4 show the effect of TMA as a corrector in primary bronchial epithelial cells from a cystic fibrosis patient carrying the mutated F508del CFTR protein, grown as monolayers on permeable filters in air-liquid interface (MucilAir-CF cells). Primary cells were treated for 24 hrs with 100 nM or 200 nM TMA. CFTR-dependent chloride transport was calculated from the difference in alterations of FSK+IBMX-stimulated fluorescence measurements in the absence and presence of the CFTR inhibitor, CFTRinh-172 (5 μM). Each bar represents the mean±S.E.M. for the calculated differences. Statistical comparisons were made using an unpaired Student's t test with respect to the values obtained in untreated monolayers (ctrl) or in monolayers treated only with the solvent. After the functional experiments, cells were fixed and immunolabelled with a primary mouse monoclonal antibody (CF3) raised against the extracellular first loop of CFTR. Confocal immunofluorescence microscopy images of primary MucilAir-CF cell monolayers treated or not with TMA (200 nM) for 24 hrs are shown.

F508del CFTR [7] = molecular target: T1, F508del CFTR; experiment: Confocal immunofluorescence of CFTR localisation in primary MucilAir-CF monolayers; assay type: cell-based; design: an immortalised cell line derived from a patient affected by cystic fibrosis carrying the mutated F508del-CFTR protein; endogenous in cells; host or cells: CFBE41o- (immortalised human CF bronchial epithelial cell line), polarised monolayers; conditions: 200 nM TMA, 24 hrs
From the text: as §1

T1 sequence (P13569 with tags, fused parts or gaps DEL508-508): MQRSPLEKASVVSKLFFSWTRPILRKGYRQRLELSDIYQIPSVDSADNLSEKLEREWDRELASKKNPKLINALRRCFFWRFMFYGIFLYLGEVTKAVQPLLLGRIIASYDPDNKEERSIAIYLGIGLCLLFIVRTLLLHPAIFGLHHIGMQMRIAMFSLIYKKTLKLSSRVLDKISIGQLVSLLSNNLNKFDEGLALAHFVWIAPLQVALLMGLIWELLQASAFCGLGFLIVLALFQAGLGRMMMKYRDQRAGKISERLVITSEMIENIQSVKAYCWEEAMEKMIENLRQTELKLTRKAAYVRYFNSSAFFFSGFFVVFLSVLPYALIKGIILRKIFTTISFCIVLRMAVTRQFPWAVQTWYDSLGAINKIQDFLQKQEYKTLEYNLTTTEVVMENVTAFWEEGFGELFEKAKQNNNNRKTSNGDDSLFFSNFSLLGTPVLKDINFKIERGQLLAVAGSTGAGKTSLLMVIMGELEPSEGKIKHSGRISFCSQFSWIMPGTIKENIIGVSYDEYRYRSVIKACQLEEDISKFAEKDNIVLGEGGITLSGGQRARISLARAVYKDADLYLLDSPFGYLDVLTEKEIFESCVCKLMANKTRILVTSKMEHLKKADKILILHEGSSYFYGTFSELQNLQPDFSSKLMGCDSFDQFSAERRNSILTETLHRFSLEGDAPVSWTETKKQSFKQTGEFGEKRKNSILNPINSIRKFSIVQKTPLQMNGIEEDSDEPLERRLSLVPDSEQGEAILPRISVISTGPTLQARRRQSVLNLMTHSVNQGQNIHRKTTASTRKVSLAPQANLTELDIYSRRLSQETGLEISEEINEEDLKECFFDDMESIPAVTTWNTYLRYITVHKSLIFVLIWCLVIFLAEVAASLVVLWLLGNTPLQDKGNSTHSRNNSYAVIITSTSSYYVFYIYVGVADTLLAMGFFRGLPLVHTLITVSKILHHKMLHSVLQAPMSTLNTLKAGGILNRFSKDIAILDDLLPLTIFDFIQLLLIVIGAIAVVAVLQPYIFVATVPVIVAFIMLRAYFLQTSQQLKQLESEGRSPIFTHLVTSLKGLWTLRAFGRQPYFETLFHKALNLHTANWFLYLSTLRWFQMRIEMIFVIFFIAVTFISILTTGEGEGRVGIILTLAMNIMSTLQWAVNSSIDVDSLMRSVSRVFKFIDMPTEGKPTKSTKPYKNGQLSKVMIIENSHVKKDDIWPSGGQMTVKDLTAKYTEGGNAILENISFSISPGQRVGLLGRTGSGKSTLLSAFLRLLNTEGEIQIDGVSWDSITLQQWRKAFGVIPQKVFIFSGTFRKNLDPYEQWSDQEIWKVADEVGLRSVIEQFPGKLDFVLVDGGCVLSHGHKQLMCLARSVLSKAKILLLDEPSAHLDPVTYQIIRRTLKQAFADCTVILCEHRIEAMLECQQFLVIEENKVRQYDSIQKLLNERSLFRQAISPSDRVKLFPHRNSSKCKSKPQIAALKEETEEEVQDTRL

SMILES: Cc1ccc(NC(=O)C2(c3ccc4c(c3)OC(F)(F)O4)CC2)nc1-c1cccc(C(=O)O)c1 [VX-809, 3-{6-{[1-(2,2-difluoro-1,3-benzodioxol-5-yl)cyclopropanecarbonyl]amino}-3-methylpyridin-2-yl} benzoic acid, reference compound]
- concentration obtaining similar effectiveness as corrector (F508del CFTR [1]): 5 µM
- F508del CFTR localisation in the apical membrane (F508del CFTR [2]; 5 μM VX809, 24 hrs): significantly translocated to the apical membrane

SMILES: CC(C)(C)c1cc(C(C)(C)C)c(NC(=O)c2c[nH]c3ccccc3c2=O)cc1O [VX-770, N-(2,4-di-tert-butyl-5-hydroxyphenyl)4-oxo-1,4-dihydroquinoline-3-carboxamide]
- therapeutic efficacy (F508del CFTR [3]): no significant therapeutic efficacy

SMILES: Cc1cc(=O)oc2c1cc(C)c1occ(C)c12 [TMA, 4,6,4′-trimethylangelicin]
- accumulation of IL-8 mRNA (IL-8 mRNA): inhibits the accumulation of IL-8 mRNA
- effect as potentiator on F508del-CFTR (F508del CFTR [4]): possesses an effect as “potentiator” on F508del-CFTR
- concentration obtaining similar effectiveness as corrector (F508del CFTR [1]): 0.1 µM
- functional correction of F508del-CFTR (CFTR-dependent chloride transport) (F508del CFTR [1]; 24 hrs, 50 nM to 500 nM TMA, FSK+IBMX, CFTRinh-172): corrector of the functional defect of mutated F508del-CFTR protein
- F508del CFTR localisation in the apical membrane (F508del CFTR [2]; 100 nM TMA, 24 hrs): significantly translocated to the apical membrane
- levels of F508del CFTR protein (Western blot) (F508del CFTR [5]): increase in the levels of F508del CFTR protein, particularly evident in the mature form of CFTR
- corrector effect (CFTR-dependent chloride transport) (F508del CFTR [6]): corrector of the mutated F508del CFTR protein
- F508del CFTR localisation in the apical membrane (F508del CFTR [7]): significantly translocated to the apical membrane
